Test results as given in the NIST ThermoML archive (doi:10.1021/je800012v).

Conditions: Liquid

CCCCCl [1-chlorobutane]
mass density [kg/m3]
Conditions	100 kPa	2500 kPa	5000 kPa	10000 kPa	15000 kPa	20000 kPa	25000 kPa	30000 kPa	35000 kPa
283.15 K	897.21	899.51	901.82	906.3	910.57	914.69	918.63	922.33	926.05
293.15 K	886.18	888.63	891.13	895.89	–	904.73	908.9	912.88	916.77
298.15 K	880.63	883.17	885.72	890.65	895.36	899.79	904.09	908.22	912.17
303.15 K	874.92	877.59	880.23	885.43	890.24	894.84	899.24	903.46	907.47
313.15 K	863.82	866.65	869.49	874.93	880.07	884.94	889.61	894.04	898.33
323.15 K	852.43	855.47	858.54	864.35	869.85	875.03	879.94	884.62	889.1
333.15 K	840.79	844.06	847.37	853.61	859.47	864.97	870.17	875.12	879.82

CCCCCC [hexane]
mass density [kg/m3]
Conditions	100 kPa	2500 kPa	5000 kPa	10000 kPa	15000 kPa	20000 kPa	25000 kPa	30000 kPa	35000 kPa
283.15 K	668.07	670.36	672.69	677.06	681.19	685.08	688.82	692.35	695.65
293.15 K	659.18	661.67	664.17	668.87	673.27	677.4	681.33	685.07	688.63
298.15 K	654.61	657.21	659.81	664.66	669.24	673.51	677.56	681.4	685.02
303.15 K	649.97	652.7	655.36	660.53	665.23	669.63	673.81	677.77	681.45
313.15 K	640.82	643.76	646.69	652.13	657.16	661.86	666.28	670.44	674.41
323.15 K	631.41	634.61	637.8	643.69	649.12	654.14	658.84	663.23	667.4
333.15 K	621.8	625.32	628.77	635.13	640.94	646.27	651.23	655.89	660.3
